In brackets after ≈: the same amount, converted by molar mass.
How the values were obtained:
[1] = system: zymosan activated whole blood phagocytes; experiment: Oxidative burst assay (luminol-enhanced chemiluminescence), whole blood; assay type: cell-based; settings: human whole blood, serum opsonized zymosan, three doses 1, 10, 100 μg/mL, mean ± SD of three, NA = Not active, read-out: Oxidative Burst Inhibition (IC50) WB
Experimental: Luminol-enhanced chemiluminescence assay was performed, as described by Helfandet al., 1982 [17], with some modifications. Briefly 25 μL of diluted whole blood in HBSS^++ (Hanks Balanced Salt Solution, containing calcium chloride and magnesium chloride) [Sigma, St. Louis, USA] was incubated with 25 μL of three different concentrations of compounds (1, 10, and 100 μg/mL), each in triplicate. Control wells received HBSS^++ and cells, but no compounds. Test was performed in white half area 96-well plates [Costar, NY, USA], which was incubated at 37 °C for 15 minutes in the thermostat chamber of luminometer [Labsystems, Helsinki, Finland]. After incubation, 25 μL of serum opsonized zymosan (SOZ) [Fluka, Buchs, Switzerland] and 25 μL of intracellular reactive oxygen species detecting probe, luminol [Research Organics, Cleveland, OH, USA] were added into each well, except blank wells (containing only HBSS^++). The level of the ROS was recorded in luminometer in term of relative light units (RLU).

MTT cytotoxicity assay = assay type: cell-based, mouse; settings: mouse; for IC50: MTT, 48 hours, read-out: Cytotoxicity NIH-3T3 cell line (IC50)
Experimental: The cytotoxicity was recorded as concentration causing 50% growth inhibition (IC50).

[2] = system: TNF-α production from THP-1 human monocytic leukemia cell line; experiment: TNF-α production (ELISA), LPS stimulated THP-1 cells; assay type: cell-based; settings: Homo sapiens; PMA-differentiated THP-1 cells, 50 ng/mL LPS, 4 hours; three doses 1, 10, 100 μg/mL; mean ± SD of three; read-out: TNF-α Inhibition (IC50)
From the text: RPMI-1640 (R8758, Sigma Aldrich, St. Louis, USA); L-glutamine (25030081, Gibco, California, USA); D-glucose (G8270, Sigma Aldrich, St. Louis, USA); 2-mercaptoethanol (190242, MP Biomedicals, lllkirch, France); sodium pyruvate (11360–070, Gibco, California, USA); FBS (A11-104, PAA Laboratories, Pasching, Austria); HEPES (H3375, Sigma Aldrich, St. Louis, USA); PMA (151864, MP Biomedicals, lllkirch, France); lipopolysaccharide B of E. coli 0111:B4 (LPS) (3922–25, DIFCO Laboratories, USA); 24-well tissue culture plates (CLS3524, Corning, Dublin, USA); Flat bottom 96-well tissue culture plates (CLS3300, Corning, New York, USA). BSA (151429, MP Biomedicals, lllkirch, France); PBS tablets (41620016–4, Bioworld, Dublin, Ireland); Tween 20 (822184, Merck, Damstadt, Germany); Human TNF-α DuoSet ELISA Kit (DY210, R&D Systems, Minneapolis, USA); Human IL-1β DuoSet ELISA Kit (DY201, R&D Systems, Minneapolis, USA); and Human IL-2 DuoSet ELISA Kit (DY202, R&D Systems, Minneapolis, USA); ELISA plate sealers (DY992, R&D Systems, Minneapolis, USA); Clear flat bottom 96-well microplates (DY990, R&D Systems, Minneapolis, USA). Human monocytic leukemia cells THP-1 were obtained from (European Collection of Cell Cultures, UK). The cells were maintained in RPMI-1640 containing 5.5 mmol/L glucose (BioM Laboratories, Chemical Division, Malaysia), 50 μmol/L mercaptoethanol (Merck Damstadt, Germany), 10% FBS (fetal bovine serum), 2 mmol/L; L-glutamine (PAA Laboratories, GmbH, Pasching, Austria). Cells were grown in 75 cc flasks, harvested and 2.5×10^5 cells/mL was then plated in 24-well tissue culture plates. 20 ng/mL of phorbol-12-myristate-13-acetate (PMA), (SERVA, Heidelberg, Germany) was added followed by incubation for 24 hours at 37 °C in 5% CO2to convert them into macrophage like cell. Cells were then stimulated with E. coli lipopolysacchride B, (DIFCO Laboratories, michigon, USA) at a final concentration of 50 ng/mL and treated with compounds at three different concentration (1, 10 and 100 μg/mL) and then incubated for 4 hours at 37 °C in 5% CO2. The supernatants collected were analyzed for the level of TNF -α using the human TNF-α Duo Set ELISA (R&D Systems, Minneapolis, USA), and according to manufacturer’s instructions.

[3] = system: nitric oxide (NO) production from LPS activated J774.2 mouse macrophages; experiment: Nitric oxide production (Griess), LPS activated macrophages; assay type: cell-based; settings: J774.2 cells, 30 μg/mL LPS, three doses 1, 10, 100 μg/mL, mean ± SD of three, read-out: NO Inhibition (IC50)
Experimental: The mouse macrophage cell line J774.2 (European Collection of Cell Cultures, UK) was cultured in 75 cc flasks IWAKI (Asahi Techno Glass, Japan) in DMEM Sigma-Aldrich (Steinheim, Germany) supplemented with 10% fetal bovine serum GIBCO (New York, USA)1% streptomycin/penicillin. Flasks were kept at 37 °C in atmosphere of humidified air containing 5% CO2, cells were seeded in 96-well plate (10^6 cells/mL) and were induced by 30 μg/mL e. coli lipopolysaccharide (LPS) (DIFCO Laboratories michigon, USA). The test compounds were added at concentrations of (1, 10 and 100 μg/mL) and plate was incubated at 37 °C in 5% CO2. Nitrite accumulation in culture supernatant was measured using the Griess reagents as described previously.

Cc1cc(C)nc(NS(=O)(=O)c2ccc(NC(=O)C(Br)CBr)cc2)n1 (stereo not drawn) [Compound 3, 2,3-Dibromo-N-(4-(N-(4,6-dimethylpyrimidin-2-yl)sulfamoyl)phenyl)propanamide]
IC50 [1]: 6.5 ± 1.3 µg/mL
IC50 (MTT cytotoxicity assay): > 30 µM
IC50 [2]: < 1 µg/mL
IC50 [3]: < 1 µg/mL

Cc1cc(C)nc(NS(=O)(=O)c2ccc(NC(=O)c3cccc(CCl)c3)cc2)n1 [Compound 4, 3-(Chloromethyl)-N-(4-(N-(4,6-dimethylpyrimidin-2-yl)sulfamoyl)phenyl)benzamide]
IC50 [1]: 7.3 ± 0.4 µg/mL
IC50 (MTT cytotoxicity assay): > 30 µM
IC50 [2]: < 1 µg/mL
IC50 [3]: < 1 µg/mL

Cc1cc(C)nc(NS(=O)(=O)c2ccc(NC(=O)c3ccc(CCl)cc3)cc2)n1 [Compound 5, 4-(Chloromethyl)-N-(4-(N-(4,6-dimethylpyrimidin-2-yl)sulfamoyl)phenyl)benzamide]
IC50 [1]: 20.5 ± 2.2 µg/mL
IC50 (MTT cytotoxicity assay): > 30 µM
IC50 [2]: < 1 µg/mL
IC50 [3]: 6.9 ± 1.9 µg/mL (≈ 16 µM)

Cc1cc(C)nc(NS(=O)(=O)c2ccc(NC(=O)c3cc(C(F)(F)F)cc(C(F)(F)F)c3)cc2)n1 [Compound 6, N-(4-(N-(4,6-dimethylpyrimidin-2-yl)sulfamoyl)phenyl)-3,5-bis(trifluoromethyl)benzamide]
IC50 [1]: 5.7 ± 0.8 µg/mL
IC50 (MTT cytotoxicity assay): > 30 µM
IC50 [2]: < 1 µg/mL
IC50 [3]: 7.8 ± 0.3 µg/mL (≈ 15 µM)

Cc1cc(C)nc(NS(=O)(=O)c2ccc(NC(=O)c3cc(F)cc(F)c3)cc2)n1 [Compound 7, N-(4-(N-(4,6-dimethylpyrimidin-2-yl)sulfamoyl)phenyl)-3,5-difluorobenzamide]
IC50 [1]: 5.8 ± 0.6 µg/mL
IC50 (MTT cytotoxicity assay): > 30 µM
IC50 [2]: 38.9 ± 0.7 µg/mL (≈ 93 µM)
IC50 [3]: 8 ± 0.3 µg/mL (≈ 19.1 µM)

Cc1cc(C)nc(NS(=O)(=O)c2ccc(NC(=O)c3cc(F)cc(C(F)(F)F)c3)cc2)n1 [Compound 8, N-(4-(N-(4,6-dimethylpyrimidin-2-yl)sulfamoyl)phenyl)-3-fluoro-5-(trifluoromethyl)benzamide]
IC50 [1]: 4.2 ± 0.2 µg/mL
IC50 (MTT cytotoxicity assay): > 30 µM
IC50 [2]: 9.5 ± 0.4 µg/mL (≈ 20.3 µM)
IC50 [3]: 7.3 ± 0.3 µg/mL (≈ 15.6 µM)

Cc1cc(C)nc(NS(=O)(=O)c2ccc(NC(=O)c3ccc(C(F)(F)F)c(F)c3)cc2)n1 [Compound 9, N-(4-(N-(4,6-dimethylpyrimidin-2-yl)sulfamoyl)phenyl)-3-fluoro-4-(trifluoromethyl)benzamide]
IC50 [1]: 5.7 ± 0.2 µg/mL
IC50 (MTT cytotoxicity assay): > 30 µM
IC50 [2]: 2.1 ± 0.2 µg/mL (≈ 4.48 µM)
IC50 [3]: 7.3 ± 0.4 µg/mL (≈ 15.6 µM)

Cc1cc(C)nc(NS(=O)(=O)c2ccc(NC(=O)c3ccc(F)c(C(F)(F)F)c3)cc2)n1 [Compound 10, N-(4-(N-(4,6-dimethylpyrimidin-2-yl)sulfamoyl)phenyl)-4-fluoro-3-(trifluoromethyl)benzamide]
IC50 [1]: 10.6 ± 0.5 µg/mL
IC50 (MTT cytotoxicity assay): > 30 µM
IC50 [2]: 34.5 ± 4.1 µg/mL (≈ 73.6 µM)
IC50 [3]: 7.3 ± 0.2 µg/mL (≈ 15.6 µM)

Cc1cc(C)nc(NS(=O)(=O)c2ccc(NC(=O)C(C)Cl)cc2)n1 (stereo not drawn) [Compound 11, 2-Chloro-N-(4-(N-(4,6-dimethylpyrimidin-2-yl)sulfamoyl)phenyl)propanamide]
IC50 [1]: 34.6 ± 1.2 µg/mL
IC50 (MTT cytotoxicity assay): > 30 µM
IC50 [2]: > 100 µg/mL
IC50 [3]: 26.3 ± 1.8 µg/mL (≈ 71.3 µM)

Cc1cc(C)nc(NS(=O)(=O)c2ccc(NC(=O)c3ccc(F)cc3)cc2)n1 [Compound 12, N-(4-(N-(4,6-dimethylpyrimidin-2-yl)sulfamoyl)phenyl)-4-fluorobenzamide]
IC50 [1]: 10.6 ± 0.5 µg/mL
IC50 (MTT cytotoxicity assay): > 30 µM
IC50 [2]: 9.9 ± 0.2 µg/mL (≈ 24.7 µM)
IC50 [3]: 10.8 ± 2.1 µg/mL (≈ 27 µM)

Cc1cc(C)nc(NS(=O)(=O)c2ccc(NC(=O)c3cccc([N+](=O)[O-])c3)cc2)n1 [Compound 13, N-(4-(N-(4,6-dimethylpyrimidin-2-yl)sulfamoyl)phenyl)-3-nitrobenzamide]
IC50 [1]: 9.2 ± 0.6 µg/mL
IC50 (MTT cytotoxicity assay): > 30 µM
IC50 [2]: 19.5 ± 1 µg/mL (≈ 45.6 µM)
IC50 [3]: 10.9 ± 0.5 µg/mL (≈ 25.5 µM)

Cc1cc(C)nc(NS(=O)(=O)c2ccc(N)cc2)n1 [compound 1, Sulfamethazine, reference compound]
IC50 [1]: 8.9 ± 1.3 µg/mL
IC50 at 48 h (MTT cytotoxicity assay): > 30 µM
IC50 [2]: > 100 µg/mL
IC50 [3]: 18.9 ± 1.7 µg/mL (≈ 67.9 µM)

Reference: publication PMC6300282, “Sulphamethazine derivatives as immunomodulating agents: New therapeutic strategies for inflammatory diseases” (PLoS ONE, 2018)
